Measurements from patent US7674595B1, “Solid state NMR method for screening cell membrane protein binding drug candidates” (priority 2006, dated 2010).

Columns and labels:
[1] = target: M2 Protein from Influenza A virus (Influenza A virus, UniProt P06821); format: binding; conditions: spectra with AMT vs without AMT, FIG. 6
gramicidin A channel [2] = assay: 17O solid-state NMR of 17O-[D-Leu10]-gA in AAO-aligned DMPC bilayers, reversible ion binding; conditions: 2.4 M KCl, approx. double occupancy of K+ in the dimeric channel, channel perpendicular to B0, 19.6 T, 40° C., reversible by EDTA wash
Protocol: The ^17O-[D-Leu^10]-gA was prepared as described previously (29), resulting in material with 57% enrichment of ^17O isotope (H^172O from Cambridge Isotope Labs, Andover, Mass.). The dry peptide was codissolved with DMPC in a 1:16 molar ratio in benzene/ethanol (20:1 v/v) solvent (28) and pipetted onto the nanoporous support. The organic solution containing gA and DMPC was rapidly adsorbed. This commercial substrate, “20 nm” Anodisc® 13 membranes (Whatman International), is shaped as disks 13 mm in diameter that are approximately […] thick. For ^31P NMR experiments AAO disks were cut into strips less than 5 mm in width to fit into a rectangular approximately 600 μL sample coil. We have also designed a special coil for ^17O NMR that required no disk cutting. Typically, stacks of up to 40 AAO strips or disks were employed for NMR measurements. The disks have a well-aligned through-film porous structure with nanochannels directed perpendicular to the disk outer surface.
The manufacturer specifies that these nanoporous substrates have a 20-nm filtration diameter cutoff. […]
The Leu^10 carbonyl in the gramicidin A pore is one of three carbonyl sites involved in K^+ binding. We have monitored K^+ binding using the ^17O resonance of selectively labeled Leu^10 carbonyls of gramicidin A dimers incorporated into DMPC bilayers and aligned using the AAO method. […]

gramicidin A channel [3] = conditions: DMPC-gA aligned by glass slides, channel parallel to B0; cited from earlier work

M2 Protein from Influenza A virus, sequence (P06821 whole entry): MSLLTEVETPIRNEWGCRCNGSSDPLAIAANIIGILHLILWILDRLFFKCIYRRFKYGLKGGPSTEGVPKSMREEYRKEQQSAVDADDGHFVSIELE

| SMILES | NMR signal changes upon binding drug (spectral shift of M2 protein) [1] | downfield shift Δδ of the 17O resonance of Leu10 carbonyl upon ion binding (δ⊥) (gramicidin A channel [2]) | shift of the 17O resonance at δ∥ upon K+ binding (gramicidin A channel [3]) [ppm] |
| --- | --- | --- | --- |
| NC12CC3CC(CC(C3)C1)C2 [Amantadine] | dramatic changes |  |  |
| [Cl-].[K+] [KCl] |  | ≈ 18 ppm | 40 |
